# Data as given in patent publication US20260293949A1, “CARBONATION SENSATION IMPARTING OR ENHANCING AGENT” (TAKASAGO INTERNATIONAL CORPORATION, priority 2022, published 2026).
# Entries after “also recorded” stand apart in the source; their conditions may differ.
# Columns and labels:
# [1] = Sensory evaluation of fizziness enhancement in carbonated water (WILKINSON TANSAN), specialized panelists; format: in vivo; settings: for Fizziness enhancement evaluation result: average score of seven panelists, 1 to 5
# Experimental: (§1) In the following Examples, the action and effect were verified using a value obtained by calculating an average score of scores for imparting or enhancing fizziness by sensory evaluation conducted by specialized panelists. The expression “1 point” in the evaluation is the evaluation in the case where no component is added at all (no addition).
# Diethyl sebacate (manufactured by Inoue Perfumery Mfg. Co., Ltd., the same applies to the following Examples) was separately added to “WILKINSON (registered trademark) TANSAN (manufactured by Asahi Soft Drinks Co., Ltd.)” so as to reach the concentrations shown in Table 2 below, and sensory evaluation was performed by seven specialized panelists to determine the extent to which fizziness was enhanced as compared with a control in which diethyl sebacate was not added.
# Diisobutyl adipate (manufactured by Inoue Perfumery Mfg. Co., Ltd., the same applies to the following Examples) was separately added to “WILKINSON (registered trademark) TANSAN (manufactured by Asahi Soft Drinks Co., Ltd.)” so as to reach the concentrations shown in Table 3 below, and sensory evaluation was performed by seven specialized panelists to determine the extent to which fizziness was enhanced as compared with a control in which diisobutyl adipate was not added.
# Dimethyl sebacate (manufactured by Tokyo Chemical Industry Co., Ltd.) was separately added to “WILKINSON (registered trademark) TANSAN (manufactured by Asahi Soft Drinks Co., Ltd.)” so as to reach the concentrations shown in Table 4 below, and sensory evaluation was performed by seven specialized panelists to determine the extent to which fizziness was enhanced as compared with a control in which dimethyl sebacate was not added.
# Dipropyl adipate (manufactured by Tokyo Chemical Industry Co., Ltd.) was separately added to “WILKINSON (registered trademark) TANSAN (manufactured by Asahi Soft Drinks Co., Ltd.)” so as to reach the concentrations shown in Table 5 below, and sensory evaluation was performed by seven specialized panelists to determine the extent to which fizziness was enhanced as compared with a control in which dipropyl adipate was not added.
# [2] = Sensory evaluation of fizziness enhancement in carbonated grapefruit flavored Chu-Hi; format: in vivo; settings: for Fizziness enhancement evaluation result: carbonated Chu-Hi, average score of seven panelists, 1 to 5
# [3] = Sensory evaluation of fizziness enhancement in beer-flavored beverage; format: in vivo; settings: for Fizziness enhancement evaluation result: beer-flavored beverage, average score of seven panelists, 1 to 5
# Experimental: as §1
# Diethyl sebacate was separately added to “Asahi Dry Zero (registered trademark) (manufactured by Asahi Breweries, Ltd.)” so as to reach the concentrations shown in Table 8 below, and sensory evaluation was performed by seven specialized panelists to determine the extent to which fizziness was enhanced as compared with a control in which diethyl sebacate was not added.
# [4] = Sensory evaluation of carbonation sensation imparting in cider-flavored frozen dessert; format: in vivo; settings: for Carbonation sensation imparting evaluation result: average score of seven panelists, 1 to 5
# Experimental: as §1
# (§2) Diethyl sebacate was separately added to a cider-flavored frozen dessert prepared according to the formulation shown in Table 16 so as to reach a concentration shown in Table 17 below, and sensory evaluation was performed by seven panelists to determine the extent to which fizziness was imparted as compared with a control in which diethyl sebacate was not added.
# [5] = Sensory evaluation of carbonation sensation imparting in grape-flavored mouthwash; format: in vivo; settings: for Carbonation sensation imparting evaluation result: grape-flavored mouthwash, average score of five panelists, 1 to 5
# Experimental: as §1
# as §2, with “grape-flavored mouthwash” for “a cider-flavored frozen dessert”, “18” for “16”, “19” for “17”, “five” for “seven”
# human TRPA1 = molecular target: T1, human TRPA1 (Homo sapiens, UniProt O75762); assay: Evaluation of human TRPA1 activity in stably expressing cells (Fluo 4-AM calcium fluorescence); format: cell-based; settings: human TRPA1 stably expressing Flp-In 293 cells; fluorescence 485/525 nm, 27° C.
# T1 construct: doxycycline-inducible Flp-In T-REx 293 cells; Fluo-4 calcium assay
# Description: The full-length human TRPA1 gene (GenBank Accession Number: NM_007332) was amplified from plasmid pFN21AB7348 (manufactured by Kazusa DNA Research Institute), and the full-length human TRPV1 gene (GenBank Accession Number: NM_018727) was amplified from pFN21AE2418 (manufactured by Kazusa DNA Research Institute) using PCR. The obtained PCR product was subcloned into pcDNA5/FRT/TO (manufactured by ThermoFisher Scientific), and then introduced into Flp-In 293 cells (manufactured by Thermo Fisher Scientific) using a Flp-In T-REX system (manufactured by Thermo Fisher Scientific) to prepare a human TRPA1 stably expressing cell line and a human TRPV1 stably expressing cell line […]
# After replacing the culture medium with buffer solution, fluorescent calcium indicator Fluo 4-AM (manufactured by Dojindo Laboratories) was added and incubated at 37° C. for 1 hour. After replacing the culture solution with buffer solution again, the microplate was set to a fluorescence microplate reader FlexStation 3 (manufactured by Molecular Devices, LLC.). Diethyl sebacate was added at various concentrations at an internal temperature of 27° C., and the fluorescence intensity at a wavelength of 525 nm when excited at a wavelength of 485 nm was measured. […]
# [6] = carbonated grapefruit flavored Chu-Hi
# [7] = carbonated beer-flavored beverage
# T1 sequence (O75762 whole entry): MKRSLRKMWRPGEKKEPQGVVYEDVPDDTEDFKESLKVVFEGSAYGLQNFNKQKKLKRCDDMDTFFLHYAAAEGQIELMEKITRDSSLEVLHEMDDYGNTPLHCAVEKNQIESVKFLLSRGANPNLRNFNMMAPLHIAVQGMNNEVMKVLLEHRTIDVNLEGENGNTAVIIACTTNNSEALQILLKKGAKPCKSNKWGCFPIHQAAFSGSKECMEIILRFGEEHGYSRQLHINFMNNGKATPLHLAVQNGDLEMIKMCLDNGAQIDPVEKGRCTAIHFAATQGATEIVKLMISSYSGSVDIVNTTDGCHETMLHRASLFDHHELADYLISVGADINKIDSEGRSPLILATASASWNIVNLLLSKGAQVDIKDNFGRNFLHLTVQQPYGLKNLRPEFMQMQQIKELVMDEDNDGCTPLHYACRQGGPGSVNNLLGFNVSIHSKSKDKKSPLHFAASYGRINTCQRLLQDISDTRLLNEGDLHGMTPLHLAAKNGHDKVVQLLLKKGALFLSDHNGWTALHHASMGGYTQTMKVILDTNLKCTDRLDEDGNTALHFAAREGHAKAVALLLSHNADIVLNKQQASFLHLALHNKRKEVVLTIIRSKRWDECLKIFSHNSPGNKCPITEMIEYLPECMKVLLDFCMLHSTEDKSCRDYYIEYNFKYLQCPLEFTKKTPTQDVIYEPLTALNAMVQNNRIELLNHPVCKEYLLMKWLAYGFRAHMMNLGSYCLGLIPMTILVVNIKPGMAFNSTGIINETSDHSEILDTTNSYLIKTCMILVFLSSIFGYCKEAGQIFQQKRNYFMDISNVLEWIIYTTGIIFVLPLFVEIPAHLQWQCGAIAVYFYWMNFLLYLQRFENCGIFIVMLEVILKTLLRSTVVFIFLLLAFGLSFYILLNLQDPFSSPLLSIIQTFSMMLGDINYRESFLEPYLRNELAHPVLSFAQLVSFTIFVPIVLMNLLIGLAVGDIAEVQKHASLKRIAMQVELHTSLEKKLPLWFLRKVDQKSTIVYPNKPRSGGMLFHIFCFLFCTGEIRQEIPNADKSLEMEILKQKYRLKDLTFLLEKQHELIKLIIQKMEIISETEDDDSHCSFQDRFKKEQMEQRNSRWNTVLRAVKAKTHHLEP
compound,measurement,setting,value
"CCOC(=O)CCCCCCCCC(=O)OCC [Diethyl sebacate, diethyl sebacate]",amelioration of mouthfeel (in words),[1],effect of ameliorating the mouthfeel was also confirmed
same,fizziness enhancement (in words),[1],fizziness of carbonated water can be enhanced
same,Fizziness enhancement evaluation result,[1]; 0.1 ppm,1.1 points
same,Fizziness enhancement evaluation result,[1]; 0.3 ppm,2.1 points
same,Fizziness enhancement evaluation result,[1]; 1 ppm,3.7 points
same,Fizziness enhancement evaluation result,[1]; 5 ppm,4.6 points
same,Fizziness enhancement evaluation result,[1]; 10 ppm,4.5 points
same,Fizziness enhancement evaluation result,[1]; 20 ppm,2.5 points
same,Fizziness enhancement evaluation result,[1]; 50 ppm,2.1 points
same,Fizziness enhancement evaluation result,[1]; 100 ppm,1.7 points
same,Fizziness enhancement evaluation result,[2]; 0.1 ppm,1.1 points
same,Fizziness enhancement evaluation result,[2]; 0.3 ppm,1.7 points
same,Fizziness enhancement evaluation result,[2]; 1 ppm,4.0 points
same,Fizziness enhancement evaluation result,[2]; 5 ppm,4.0 points
same,Fizziness enhancement evaluation result,[2]; 10 ppm,3.9 points
same,Fizziness enhancement evaluation result,[2]; 20 ppm,3.4 points
same,Fizziness enhancement evaluation result,[2]; 50 ppm,2.6 points
same,Fizziness enhancement evaluation result,[2]; 100 ppm,1.3 points
same,amelioration of mouthfeel (in words),[2]; [6],effect of ameliorating the mouthfeel was also confirmed
same,fizziness enhancement (in words),[2]; [6],fizziness of the carbonated grapefruit flavored Chu-Hi can be enhanced
same,Fizziness enhancement evaluation result,[3]; 0.1 ppm,1.1 points
same,Fizziness enhancement evaluation result,[3]; 0.3 ppm,1.6 points
same,Fizziness enhancement evaluation result,[3]; 1 ppm,2.7 points
same,Fizziness enhancement evaluation result,[3]; 5 ppm,2.9 points
same,Fizziness enhancement evaluation result,[3]; 10 ppm,2.7 points
same,Fizziness enhancement evaluation result,[3]; 20 ppm,2.7 points
same,Fizziness enhancement evaluation result,[3]; 50 ppm,1.9 points
same,Fizziness enhancement evaluation result,[3]; 100 ppm,1.1 points
same,amelioration of mouthfeel (in words),[3]; [7],effect of ameliorating the mouthfeel was also confirmed
same,fizziness enhancement (in words),[3]; [7],fizziness of the carbonated beer-flavored beverage can be enhanced
same,amelioration of mouthfeel (in words),[4],effect of ameliorating the mouthfeel was also confirmed
same,fizziness imparting (in words),[4],fizziness can be imparted to the cider-flavored frozen dessert
same,Carbonation sensation imparting evaluation result,[4]; 0.1 ppm,1.4 points
same,Carbonation sensation imparting evaluation result,[4]; 0.3 ppm,1.9 points
same,Carbonation sensation imparting evaluation result,[4]; 1 ppm,2.1 points
same,Carbonation sensation imparting evaluation result,[4]; 5 ppm,3.6 points
same,Carbonation sensation imparting evaluation result,[4]; 10 ppm,4.5 points
same,Carbonation sensation imparting evaluation result,[4]; 20 ppm,3.6 points
same,Carbonation sensation imparting evaluation result,[4]; 50 ppm,2.7 points
same,Carbonation sensation imparting evaluation result,[4]; 100 ppm,1.4 points
same,Carbonation sensation imparting evaluation result,[5]; 0.1 ppm,1.8 points
same,Carbonation sensation imparting evaluation result,[5]; 1 ppm,2.2 points
same,Carbonation sensation imparting evaluation result,[5]; 5 ppm,2.8 points
same,Carbonation sensation imparting evaluation result,[5]; 10 ppm,3.4 points
same,Carbonation sensation imparting evaluation result,[5]; 50 ppm,4.0 points
same,Carbonation sensation imparting evaluation result,[5]; 100 ppm,3.8 points
same,Carbonation sensation imparting evaluation result,[5]; 500 ppm,3.0 points
same,amelioration of mouthfeel (in words),[5]; mouthwash,effect of ameliorating the mouthfeel was also confirmed
same,fizziness imparting (in words),[5]; mouthwash,fizziness can be imparted to the mouthwash
same,TRPA1 activity,human TRPA1,high TRPA1 activity; also recorded: respond
